experiment: recombinant barcode read abundance after kanamycin selection (control-corrected) (log10(CPM+1)); higher = more efficient recombination; sequences stand for … in AGTGCAGAGAAAATCGGCCAGTTTTCTCTGCCTGCAGTCCGCATGCCGT…AGATTTATGCAGCGGACTGCCTTTCTCCCAAAGTGATAAACCGGACAGTATCATGGACCGGTTTTCCCGGTAATCCGTATTTGCAAGGTTGGTTTCACT; site = the 11-nt target
How it was run: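 Each value is log10(CPM+1). It describes recombination efficiency, taken as averaged, control-corrected counts per million of barcodes at recombinant junctions. The pooled E. coli library paired targets with IS621 bridge RNA target-binding loops, was co-electroporated with a donor plasmid, and was plated twice on chloramphenicol/ampicillin LB agar (control) and twice on chloramphenicol/ampicillin/kanamycin containing 0.1 mM IPTG.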
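Note: IS621 recombinase and bridge RNA in Escherichia coli cells.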

Sequence	recombinant barcode read abundance (log10)
AGCGCTCCTTGGGTTCTAACCTGTTGCCT (site ACCGCTCCTAG)	0.305
AGCGCTCCTTGGGTTCTAACCTGTTGCCT (site AGCGCTCCTAG)	0.68
AGCGCTCCTTGGGTTCTAACCTGTTGCCT (site ATCGCTCCTAG)	0
AGCGGCCCTTGGGTTCTAACCTGTTGCCT (site AGCGGACCTAG)	0.466
AGCGGCCCTTGGGTTCTAACCTGTTGCCT (site AGCGGCCCTAG)	1.26
AGCGGCCCTTGGGTTCTAACCTGTTGCCT (site AGCGGGCCTAG)	0.0662
AGCGGCCCTTGGGTTCTAACCTGTTGCCT (site AGCGGTCCTAG)	0.0761
AGCTAATCTTGGGTTCTAACCTGTTGCTT (site AGCTAATCTAA)	0.0369
AGCTAATCTTGGGTTCTAACCTGTTGCTT (site GAGCTGCCTTG)	0.0324
AGCTATGCTTGGGTTCTAACCTGTTGCCT (site AGCTATGCTAG)	0.317
AGCTATGCTTGGGTTCTAACCTGTTGCCT (site GAAATACCTCC)	0.138
AGCTGTCCTTGGGTTCTAACCTGTTGCAG (site AGCTGTCCTCT)	0.273
AGCTGTCCTTGGGTTCTAACCTGTTGCAG (site TAGGCGGCTAC)	0.0556
AGCTTAGCTTGGGTTCTAACCTGTTGCCA (site AGCTTAGCTAG)	0.484
AGCTTAGCTTGGGTTCTAACCTGTTGCCA (site AGCTTAGCTCG)	0.365
AGCTTAGCTTGGGTTCTAACCTGTTGCCA (site AGCTTAGCTGG)	0.463
AGCTTAGCTTGGGTTCTAACCTGTTGCCA (site AGCTTAGCTTG)	0.387
AGGAACACTTGGGTTCTAACCTGTTGCCT (site AGAAACACTAG)	1.36
AGGAACACTTGGGTTCTAACCTGTTGCCT (site AGGAACACTAG)	1.94
AGGAACACTTGGGTTCTAACCTGTTGCTG (site AGGAACACTAA)	0.803
AGGAACACTTGGGTTCTAACCTGTTGCTG (site AGGAACACTCA)	2.65
AGGAACTCTTGGGTTCTAACCTGTTGCAT (site AGGAACTCTAT)	2.44

Sequence	recombinant barcode read abundance (log10)
AGGAACTCTTGGGTTCTAACCTGTTGCAT (site GGGAACCCTAT)	0.0839
AGGAACTCTTGGGTTCTAACCTGTTGCTT (site AGGAACTCTAA)	1.87
AGGAACTCTTGGGTTCTAACCTGTTGCTT (site AGGAGCTCTTA)	0.0561
AGGAAGACTTGGGTTCTAACCTGTTGCCA (site AGGAAGACTTG)	0.948
AGGAAGACTTGGGTTCTAACCTGTTGCCA (site AGGCAGACTTG)	0.0465
AGGAAGACTTGGGTTCTAACCTGTTGCCA (site AGGGAGACTTG)	0.239
AGGAAGACTTGGGTTCTAACCTGTTGCCA (site AGGTAGACTTG)	0.412
AGGAAGACTTGGGTTCTAACCTGTTGCCG (site AGGAAGACTCC)	0.883
AGGAAGACTTGGGTTCTAACCTGTTGCCG (site AGGAAGACTCG)	1.95
AGGACCACTTGGGTTCTAACCTGTTGCCA (site AGGACCACTTG)	0.868
AGGACCACTTGGGTTCTAACCTGTTGCCA (site ATGACCGCTTG)	0.0948
AGGAGCCCTTGGGTTCTAACCTGTTGCGA (site AGGAGCCCTTC)	2.84
AGGAGCCCTTGGGTTCTAACCTGTTGCGA (site CGGAGCCCTCC)	0.0589
AGGAGTCCTTGGGTTCTAACCTGTTGCGT (site AGCAGTCCTAC)	0.182
AGGAGTCCTTGGGTTCTAACCTGTTGCGT (site AGGAGTCCTAC)	2.57
AGGAGTCCTTGGGTTCTAACCTGTTGCTG (site AGGAATCCTAA)	1.57
AGGAGTCCTTGGGTTCTAACCTGTTGCTG (site AGGAGTCCTCA)	2.08
AGGATTCCTTGGGTTCTAACCTGTTGCCT (site AAGATTCCTAG)	0.171
AGGATTCCTTGGGTTCTAACCTGTTGCCT (site ACGATTCCTAG)	0.634
AGGATTCCTTGGGTTCTAACCTGTTGCCT (site AGGATTCCTAG)	1.16
AGGATTCCTTGGGTTCTAACCTGTTGCCT (site ATGATTCCTAG)	0.158
AGGCCCACTTGGGTTCTAACCTGTTGCTC (site AGGCCCACTGA)	1.81

Sequence	recombinant barcode read abundance (log10)
AGGCCCACTTGGGTTCTAACCTGTTGCTC (site AGGTCCACTCA)	0.166
AGGCCGTCTTGGGTTCTAACCTGTTGCGT (site AGGCAGTCTAG)	0.195
AGGCCGTCTTGGGTTCTAACCTGTTGCGT (site AGGCCGTCTAC)	2.43
AGGCGCCCTTGGGTTCTAACCTGTTGCAT (site AGGCGCCCTAT)	1.29
AGGCGCCCTTGGGTTCTAACCTGTTGCAT (site AGGCGCCCTCT)	0.041
AGGCGCCCTTGGGTTCTAACCTGTTGCAT (site AGGCGCCCTGT)	0.219
AGGCGCCCTTGGGTTCTAACCTGTTGCAT (site AGGCGCCCTTT)	0.244
AGGCGTCCTTGGGTTCTAACCTGTTGCCG (site AGGCGTCCTAG)	0.964
AGGCGTCCTTGGGTTCTAACCTGTTGCCG (site AGGCGTCCTCG)	1.24
AGGCGTCCTTGGGTTCTAACCTGTTGCCG (site AGGCGTCCTGG)	0.227
AGGCGTCCTTGGGTTCTAACCTGTTGCCG (site AGGCGTCCTTG)	0.122
AGGCGTCCTTGGGTTCTAACCTGTTGCCT (site AGGCGTCCTAG)	1.44
AGGCGTCCTTGGGTTCTAACCTGTTGCCT (site AGGCGTCCTCG)	0.249
AGGCGTCCTTGGGTTCTAACCTGTTGCCT (site AGGCGTCCTGG)	1.03
AGGCGTCCTTGGGTTCTAACCTGTTGCCT (site AGGCGTCCTTG)	0.374
AGGGATCCTTGGGTTCTAACCTGTTGCGT (site AGGGATCCTAC)	3.09
AGGGATCCTTGGGTTCTAACCTGTTGCGT (site ATGGATCCTAC)	1.29
AGGGCACCTTGGGTTCTAACCTGTTGCAG (site AGGGCACCTCT)	1.56
AGGGCACCTTGGGTTCTAACCTGTTGCAG (site CATCGGACTTC)	0.142
AGGGCGTCTTGGGTTCTAACCTGTTGCCG (site AGGGCATCTAG)	0.0811
AGGGCGTCTTGGGTTCTAACCTGTTGCCG (site AGGGCGTCTCG)	1.69
AGGGTCACTTGGGTTCTAACCTGTTGCCT (site AAGGTCACTAG)	0.274

Sequence	recombinant barcode read abundance (log10)
AGGGTCACTTGGGTTCTAACCTGTTGCCT (site ACGGTCACTAG)	0.653
AGGGTCACTTGGGTTCTAACCTGTTGCCT (site AGGGTCACTAG)	2.23
AGGGTCACTTGGGTTCTAACCTGTTGCCT (site ATGGTCACTAG)	1.06
AGGGTGTCTTGGGTTCTAACCTGTTGCTG (site AGGGTGCCTTA)	0.105
AGGGTGTCTTGGGTTCTAACCTGTTGCTG (site AGGGTGTCTCA)	2.55
AGGTACACTTGGGTTCTAACCTGTTGCAC (site AGGTACACTGT)	2.22
AGGTACACTTGGGTTCTAACCTGTTGCAC (site TTCAGACCTAG)	0.0924
AGGTCCACTTGGGTTCTAACCTGTTGCTG (site AGGCCCACTGA)	0.109
AGGTCCACTTGGGTTCTAACCTGTTGCTG (site AGGTCCACTCA)	1.31
AGGTCCTCTTGGGTTCTAACCTGTTGCCT (site AGGTCCTCTAA)	1.05
AGGTCCTCTTGGGTTCTAACCTGTTGCCT (site AGGTCCTCTAC)	0.233
AGGTCCTCTTGGGTTCTAACCTGTTGCCT (site AGGTCCTCTAG)	2.06
AGGTCCTCTTGGGTTCTAACCTGTTGCCT (site AGGTCCTCTAT)	0.703
AGGTCTACTTGGGTTCTAACCTGTTGCCA (site AGGTCTACTTG)	0.6
AGGTCTACTTGGGTTCTAACCTGTTGCCA (site TTAGACCCTCT)	0.1
AGGTCTACTTGGGTTCTAACCTGTTGCGG (site AGGTCTACTCC)	1.63
AGGTCTACTTGGGTTCTAACCTGTTGCGG (site GAAAACTCTAG)	0.0493
AGGTGTCCTTGGGTTCTAACCTGTTGCGA (site AGGTGTCCTTC)	2.36
AGGTGTCCTTGGGTTCTAACCTGTTGCGA (site TATATATCTAT)	0.247
AGGTTCCCTTGGGTTCTAACCTGTTGCGG (site AGGTTCCCTCC)	1.96
